{"source": "patent US20060045865A1", "about": "“Controlled regional oral delivery” (Spherics, Inc., priority 2004, published 2006)", "origin": "cited, not measured here", "key": {"[1]": {"experiment": "not given", "remark": "listed apart in the source"}, "H. pylori": {"test_system": "H. pylori", "settings": "pH 5.5"}}, "note": "Where two headings read alike, the source gives them in different places.", "data": [{"molecule": "1-[(4R,5s)-5-[(2-aminoethyl)amino]-N^2-(10,12-dimethyl-1-oxotetradecyl)-4-hydroxy-L-ornithine]-5-[(3IRI)-3-hydroxy-L-ornithine]pneumocandin B0 diacetate (salt) [Caspofungin acetate]", "values": [{"measurement": "Bioavailability", "setting": "oral", "result": 0, "unit": "%"}, {"measurement": "Solubility in water", "setting": "[1]", "result": "freely soluble"}]}, {"molecule": "Nc1nc2c(ncn2COCCO)c(=O)[nH]1", "note": "[Acyclovir, 2-amino-1,9-dihydro-9-[(2-hydroxyethoxy)methyl]-6H-purin-6-one]", "values": [{"measurement": "Bioavailability", "setting": "oral", "result": "10-20%"}]}, {"molecule": "NC(=O)N1c2ccccc2C=Cc2ccccc21", "note": "[Carbamazepine, 5H-dibenz[b,f]azepine-5-carboxamide]", "values": [{"measurement": "Bioavailability", "setting": "in vivo, po", "result": 89, "unit": "%"}]}, {"molecule": "C#C[C@]1(O)CC[C@H]2[C@@H]3CCC4=Cc5oncc5C[C@]4(C)[C@H]3CC[C@@]21C", "note": "[Danazol, 17a-Pregna-2,4-dien-20-yno[2,3-d]-isoxazol-17-ol]", "values": [{"measurement": "Half-life", "setting": "oral administration", "result": "4 to 5", "unit": "h"}, {"measurement": "Time to peak plasma concentration", "setting": "oral dose", "result": "≤ 2", "unit": "h"}]}, {"molecule": "NCC1(CC(=O)O)CCCCC1", "note": "[Gabapentin]", "values": [{"measurement": "Bioavailability", "setting": "900 mg dose, given three times a day", "result": "≤ 60", "unit": "%"}]}, {"molecule": "CC(=O)O[C@H]1C(=O)[C@@]2(C)[C@H]([C@H](OC(=O)c3ccccc3)[C@]3(O)C[C@H](OC(=O)[C@H](O)[C@@H](NC(=O)c4ccccc4)c4ccccc4)C(C)=C1C3(C)C)[C@]1(OC(C)=O)CO[C@@H]1C[C@@H]2O", "note": "[Paclitaxel]", "values": [{"measurement": "Solubility in water", "setting": "[1]", "result": "insoluble"}]}, {"molecule": "C=CC[C@@H]1/C=C(\\C)C[C@H](C)C[C@H](OC)[C@H]2O[C@@](O)(C(=O)C(=O)N3CCCC[C@H]3C(=O)O[C@H](/C(C)=C/[C@@H]3CC[C@@H](O)[C@H](OC)C3)[C@H](C)[C@@H](O)CC1=O)[C@H](C)C[C@@H]2OC", "note": "[Tacrolimus]", "values": [{"measurement": "Absolute bioavailability", "setting": "5 mg dose taken twice a day", "result": "approximately 17%"}, {"measurement": "Solubility in water", "setting": "[1]", "result": "practically insoluble"}]}, {"molecule": "CC(C)[C@H](N)C(=O)OCCOCn1cnc2c(=O)[nH]c(N)nc21", "note": "[Valacyclovir]", "values": [{"measurement": "Bioavailability", "setting": "oral", "result": "approximately 50%"}, {"measurement": "Solubility in water", "setting": "[1]", "result": "greater solubility in water than acyclovir"}]}, {"molecule": "CC[C@H]1OC(=O)[C@H](C)[C@@H](O[C@H]2C[C@@](C)(OC)[C@@H](O)[C@H](C)O2)[C@H](C)[C@@H](O[C@@H]2O[C@H](C)C[C@H](N(C)C)[C@H]2O)[C@](C)(OC)C[C@@H](C)C(=O)[C@H](C)[C@@H](O)[C@]1(C)O", "note": "[clarithromycin]", "values": [{"measurement": "Decrease in activity", "setting": "H. pylori", "result": "> 16", "unit": "fold"}]}]}
